Data taken from patent US11214594B2, “Antimicrobial peptide having synergistic antibacterial effect with antibiotics on multidrug resistant bacteria, and use thereof” (priority 2016, dated 2022).
In brackets after ≈: the same amount, converted by molar mass. Where a SMILES comes first, the peptide text is derived from it.

Key:
P. aeruginosa = assay: microbe, parasite or virus in culture; format: cell-based, Pseudomonas aeruginosa
In short: (§1)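 Peptides were serially diluted twofold in Mueller-Hinton medium and combined 1:1 with bacterial suspensions prepared at 2×10^6 CFU. Readout was the minimal inhibitory concentration, i.e. the lowest concentration with no growth.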

MDRAB 12036 = format: cell-based, Acinetobacter baumannii
In short: as §1

MDREC 1229 [1] = assay: microbe, parasite or virus in culture; format: cell-based, Escherichia coli
In short: as §1

E. coli [2] = assay: microbe, parasite or virus in culture; format: cell-based, Escherichia coli
In short: as §1

MDRST 8009 = format: cell-based, Salmonella typhimurium; details: agent alone
In short: as §1

MDREC 1238 = format: cell-based, Escherichia coli
In short: as §1

E. coli [3] = assay: MIC of antibiotic during combined treatment with antimicrobial peptide; format: cell-based, Escherichia coli; details: for Antibiotic MIC, Erythromycin / Antibiotic MIC, Linezolid / Antibiotic MIC, Vancomycin: E. coli
In short: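 Read-out is the MIC of each combined solution, obtained from MH-medium dilutions of antibiotic added well by well, with a reversed-condition run as well.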

S. aureus = assay: microbe, parasite or virus in culture; format: cell-based, Staphylococcus aureus
In short: as §1

MDRST 8007 = assay: Minimal inhibitory concentration (MIC), single agent; format: cell-based, Salmonella typhimurium; details: agent alone
In short: as §1

S. typhimurium = assay: microbe, parasite or virus in culture; format: cell-based, Salmonella typhimurium
In short: as §1

A. baumannii = assay: MIC of antimicrobial peptide during combined treatment with antibiotic; format: cell-based, Acinetobacter baumannii
In short: (§2)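 Strains in MH medium at 2×10^6 CFU/ml were mixed with peptide diluted stepwise (2:1) from its MIC, then antibiotic dilutions in MH medium were added to give the antibiotic MIC. The reversed set-up, peptide titrated against fixed antibiotic, gave the peptide MIC.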

MDRAB 12035 = assay: as above; format: cell-based, Acinetobacter baumannii
In short: as §2

MDREC 1229 [4] = assay: MIC of antibiotic during combined treatment with antimicrobial peptide; format: cell-based, Escherichia coli
In short: as §2

S. epidermidis = assay: microbe, parasite or virus in culture; format: cell-based, Staphylococcus epidermidis
In short: as §1

MRSA 3114 = format: cell-based, Staphylococcus aureus; details: 3114
In short: as §1

MRSA 3126 = format: cell-based, Staphylococcus aureus; details: 3126
In short: as §1

[5] = erythromycin 4 μg/ml (Conc./MIC 1/8)
[6] = erythromycin 8 μg/ml (Conc./MIC 1/4)
[7] = erythromycin 16 μg/ml (Conc./MIC 1/2)
[8] = erythromycin 32 μg/ml (Conc./MIC 1)
[9] = vancomycin 512 μg/ml (Conc./MIC 1/2)
[10] = vancomycin 1024 μg/ml (Conc./MIC 1)
[11] = peptide treatment concentration 1 μg/ml
[12] = peptide treatment concentration 2 μg/ml
[13] = peptide treatment concentration 4 μg/ml
[14] = peptide treatment concentration 6 μg/ml
[15] = peptide treatment concentration 8 μg/ml
[16] = peptide treatment concentration 16 μg/ml
[17] = peptide treatment concentration 32 μg/ml
[18] = peptide treatment concentration 64 μg/ml

CC[C@H](C)[C@H](NC(=O)[C@H](CCCCN)NC(=O)[C@H](Cc1c[nH]c2ccccc12)NC(=O)[C@@H](N)CCCNC(=N)N)C(=O)N[C@@H](Cc1ccccc1)C(=O)N[C@@H](CCCCN)C(=O)N[C@@H](CCCCN)C(=O)N[C@H](C(=O)N1CCC[C@H]1C(=O)N[C@@H](CCCCN)C(=O)N[C@@H](CC(C)C)C(=O)N[C@@H](CC(C)C)C(=O)N[C@@H](Cc1c[nH]cn1)C(=O)N[C@@H](CO)C(=O)N[C@@H](CC(C)C)C(=O)N[C@@H](CCCCN)C(=O)N[C@@H](CCCCN)C(=O)N[C@@H](Cc1ccccc1)C(N)=O)[C@@H](C)CC [PapMA-8, RWK IFK KIP KLL HSL KKF-NH2] (H-RWKIFKKIPKLLHSLKKF-NH2; N-terminus assumed)
Minimal inhibitory concentration MIC (P. aeruginosa): 16 µg/mL (≈ 6.93 µM) | Antibacterial activity (in words) (P. aeruginosa; P. aeruginosa and S. typhimurium): significantly increased | Minimal inhibitory concentration MIC (MDRAB 12036): 64 µg/mL (≈ 27.7 µM) | Minimal inhibitory concentration MIC (MDREC 1229 [1]): 64 µg/mL (≈ 27.7 µM) | Minimal inhibitory concentration MIC (E. coli [2]; 16 h): 32 µg/mL (≈ 13.9 µM) | Antibacterial activity relative to PapMA-1 (E. coli [2]; E. coli): at least twice as high | Minimal inhibitory concentration MIC (MDRST 8009): 64 µg/mL (≈ 27.7 µM) | Minimal inhibitory concentration MIC (MDREC 1238): 64 µg/mL (≈ 27.7 µM) | Synergistic effect of antibacterial activity with existing antibiotics compared with PapMA-1 (E. coli [3]; E. coli and MDREC1229): higher level than the PapMA-1 peptide | Antibiotic MIC, Erythromycin (E. coli [3]; erythromycin combined with peptide at 1 μg/ml): 128 µg/mL | Antibiotic MIC, Erythromycin (E. coli [3]; erythromycin combined with peptide at 2 μg/ml): 64 µg/mL | Antibiotic MIC, Erythromycin (E. coli [3]; erythromycin combined with peptide at 4 μg/ml): 8 µg/mL | Antibiotic MIC, Erythromycin (E. coli [3]; erythromycin combined with peptide at 6 μg/ml): 4 µg/mL | Antibiotic MIC, Erythromycin (E. coli [3]; erythromycin combined with peptide at 8 μg/ml): 0.5 µg/mL | Antibiotic MIC, Erythromycin (E. coli [3]; erythromycin combined with peptide at 16 μg/ml): 0.25 µg/mL | Antibiotic MIC, Erythromycin (E. coli [3]; erythromycin combined with peptide at 32 μg/ml): 0 µg/mL | Antibiotic MIC, Erythromycin (E. coli [3]; erythromycin combined with peptide at 64 μg/ml): 0 µg/mL | Antibiotic MIC, Linezolid (E. coli [3]; linezolid combined with peptide at 1 μg/ml): >128 µg/mL | Antibiotic MIC, Linezolid (E. coli [3]; linezolid combined with peptide at 2 μg/ml): >128 µg/mL | Antibiotic MIC, Linezolid (E. coli [3]; linezolid combined with peptide at 4 μg/ml): 128 µg/mL | Antibiotic MIC, Linezolid (E. coli [3]; linezolid combined with peptide at 6 μg/ml): 32 µg/mL | Antibiotic MIC, Linezolid (E. coli [3]; linezolid combined with peptide at 8 μg/ml): 8 µg/mL | Antibiotic MIC, Linezolid (E. coli [3]; linezolid combined with peptide at 16 μg/ml): 2 µg/mL | Antibiotic MIC, Linezolid (E. coli [3]; linezolid combined with peptide at 32 μg/ml): 0 µg/mL | Antibiotic MIC, Linezolid (E. coli [3]; linezolid combined with peptide at 64 μg/ml): 0 µg/mL | Antibiotic MIC, Vancomycin (E. coli [3]; vancomycin combined with peptide at 1 μg/ml): >128 µg/mL | Antibiotic MIC, Vancomycin (E. coli [3]; vancomycin combined with peptide at 2 μg/ml): >128 µg/mL | Antibiotic MIC, Vancomycin (E. coli [3]; vancomycin combined with peptide at 4 μg/ml): 64 µg/mL | Antibiotic MIC, Vancomycin (E. coli [3]; vancomycin combined with peptide at 6 μg/ml): 32 µg/mL | Antibiotic MIC, Vancomycin (E. coli [3]; vancomycin combined with peptide at 8 μg/ml): 16 µg/mL | Antibiotic MIC, Vancomycin (E. coli [3]; vancomycin combined with peptide at 16 μg/ml): 2 µg/mL | Antibiotic MIC, Vancomycin (E. coli [3]; vancomycin combined with peptide at 32 μg/ml): 0 µg/mL | Antibiotic MIC, Vancomycin (E. coli [3]; vancomycin combined with peptide at 64 μg/ml): 0 µg/mL | Minimal inhibitory concentration MIC (S. aureus): >128 µg/mL | Minimal inhibitory concentration MIC (MDRST 8007): 64 µg/mL (≈ 27.7 µM) | Minimal inhibitory concentration MIC (S. typhimurium): 32 µg/mL (≈ 13.9 µM) | Peptide MIC during treatment with antibiotic (A. baumannii; [5]): 4 µg/mL | Peptide MIC during treatment with antibiotic (A. baumannii; [6]): 4 µg/mL | Peptide MIC during treatment with antibiotic (A. baumannii; [7]): 2 µg/mL | Peptide MIC during treatment with antibiotic (A. baumannii; [8]): 0 µg/mL | Peptide MIC during treatment with antibiotic (A. baumannii; linezolid 32 μg/ml (Conc./MIC 1/8)): 4 µg/mL | Peptide MIC during treatment with antibiotic (A. baumannii; linezolid 64 μg/ml (Conc./MIC 1/4)): 2 µg/mL | Peptide MIC during treatment with antibiotic (A. baumannii; linezolid […] (Conc./MIC 1)): 0 µg/mL | Peptide MIC during treatment with antibiotic (A. baumannii; linezolid […] (Conc./MIC 1/2)): 2 µg/mL | Peptide MIC during treatment with antibiotic (A. baumannii; [9]): 1 µg/mL | Peptide MIC during treatment with antibiotic (A. baumannii; [10]): 0 µg/mL | Peptide MIC during treatment with antibiotic (A. baumannii; vancomycin […] (Conc./MIC 1/4)): 1 µg/mL | Peptide MIC during treatment with antibiotic (A. baumannii; vancomycin […] (Conc./MIC 1/8)): 4 µg/mL | Peptide MIC during treatment with erythromycin (MDRAB 12035; [5]): 8 µg/mL | Peptide MIC during treatment with erythromycin (MDRAB 12035; [6]): 8 µg/mL | Peptide MIC during treatment with erythromycin (MDRAB 12035; [7]): 4 µg/mL | Peptide MIC during treatment with erythromycin (MDRAB 12035; [8]): 0 µg/mL | Peptide MIC during treatment with linezolid (MDRAB 12035; linezolid 64 μg/ml (Conc./MIC 1/8)): 4 µg/mL | Peptide MIC during treatment with linezolid (MDRAB 12035; linezolid 512 μg/ml (Conc./MIC 1)): 0 µg/mL | Peptide MIC during treatment with linezolid (MDRAB 12035; linezolid […] (Conc./MIC 1/2)): 1 µg/mL | Peptide MIC during treatment with linezolid (MDRAB 12035; linezolid […] (Conc./MIC 1/4)): 2 µg/mL | Peptide MIC during treatment with vancomycin (MDRAB 12035; [9]): 2 µg/mL | Peptide MIC during treatment with vancomycin (MDRAB 12035; [10]): 1 µg/mL | Peptide MIC during treatment with vancomycin (MDRAB 12035; vancomycin […] (Conc./MIC 1/4)): 2 µg/mL | Peptide MIC during treatment with vancomycin (MDRAB 12035; vancomycin […] (Conc./MIC 1/8)): 4 µg/mL | Antibiotic MIC, Erythromycin (MDREC 1229 [4]; [11]): >128 µg/mL | Antibiotic MIC, Linezolid (MDREC 1229 [4]; [11]): >128 µg/mL | Antibiotic MIC, Vancomycin (MDREC 1229 [4]; [11]): >128 µg/mL | Antibiotic MIC, Erythromycin (MDREC 1229 [4]; [12]): 64 µg/mL | Antibiotic MIC, Linezolid (MDREC 1229 [4]; [12]): >128 µg/mL | Antibiotic MIC, Vancomycin (MDREC 1229 [4]; [12]): >128 µg/mL | Antibiotic MIC, Erythromycin (MDREC 1229 [4]; [13]): 8 µg/mL | Antibiotic MIC, Linezolid (MDREC 1229 [4]; [13]): 128 µg/mL | Antibiotic MIC, Vancomycin (MDREC 1229 [4]; [13]): >128 µg/mL | Antibiotic MIC, Erythromycin (MDREC 1229 [4]; [14]): 4 µg/mL | Antibiotic MIC, Linezolid (MDREC 1229 [4]; [14]): 32 µg/mL | Antibiotic MIC, Vancomycin (MDREC 1229 [4]; [14]): >128 µg/mL | Antibiotic MIC, Erythromycin (MDREC 1229 [4]; [15]): 1 µg/mL | Antibiotic MIC, Linezolid (MDREC 1229 [4]; [15]): 32 µg/mL | Antibiotic MIC, Vancomycin (MDREC 1229 [4]; [15]): 32 µg/mL | Antibiotic MIC, Erythromycin (MDREC 1229 [4]; [16]): 0.5 µg/mL | Antibiotic MIC, Linezolid (MDREC 1229 [4]; [16]): 16 µg/mL | Antibiotic MIC, Vancomycin (MDREC 1229 [4]; [16]): 16 µg/mL | Antibiotic MIC, Erythromycin (MDREC 1229 [4]; [17]): 0.125 µg/mL | Antibiotic MIC, Linezolid (MDREC 1229 [4]; [17]): 8 µg/mL | Antibiotic MIC, Vancomycin (MDREC 1229 [4]; [17]): 8 µg/mL | Antibiotic MIC, Erythromycin (MDREC 1229 [4]; [18]): 0 µg/mL | Antibiotic MIC, Linezolid (MDREC 1229 [4]; [18]): 0 µg/mL | Antibiotic MIC, Vancomycin (MDREC 1229 [4]; [18]): 0 µg/mL | Minimal inhibitory concentration MIC (S. epidermidis): >128 µg/mL | Minimal inhibitory concentration MIC (MRSA 3114): >128 µg/mL | Minimal inhibitory concentration MIC (MRSA 3126): >128 µg/mL
